The structures appear in SMILES notation.

The experiment has as its target T1, ITK (Homo sapiens, UniProt Q08881).
T1 construct: purchased Invitrogen PV3875
T1 sequence (Q08881 1-620): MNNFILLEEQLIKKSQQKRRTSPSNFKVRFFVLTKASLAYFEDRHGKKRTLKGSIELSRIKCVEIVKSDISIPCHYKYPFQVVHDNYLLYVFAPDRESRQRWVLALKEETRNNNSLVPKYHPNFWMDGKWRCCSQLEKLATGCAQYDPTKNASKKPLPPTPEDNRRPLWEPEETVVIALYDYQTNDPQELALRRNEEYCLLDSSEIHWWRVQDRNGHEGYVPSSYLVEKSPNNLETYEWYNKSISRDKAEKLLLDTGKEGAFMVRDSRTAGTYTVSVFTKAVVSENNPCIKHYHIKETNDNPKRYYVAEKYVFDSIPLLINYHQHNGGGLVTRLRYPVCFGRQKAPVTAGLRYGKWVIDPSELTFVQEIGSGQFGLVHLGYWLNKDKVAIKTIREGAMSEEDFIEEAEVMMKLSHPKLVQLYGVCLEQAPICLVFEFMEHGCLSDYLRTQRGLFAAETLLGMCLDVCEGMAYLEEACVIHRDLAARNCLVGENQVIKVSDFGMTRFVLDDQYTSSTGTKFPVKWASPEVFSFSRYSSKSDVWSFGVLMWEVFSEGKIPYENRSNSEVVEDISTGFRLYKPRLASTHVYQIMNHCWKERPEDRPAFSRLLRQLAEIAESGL
Put plainly: ITK enzyme assay (Caliper or LCMS peptide phosphorylation). Format: biochemical. The following applies: purified ITK (Invitrogen PV3875), 20 μM ATP, Ki by Morrison's quadratic equation. In outline: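 Ki values come from Morrison quadratic fits of activity versus inhibitor concentration, adjusted for ATP-competitive inhibition against ATP/Km,app. Substrate and phosphopeptide from purified ITK reactions were resolved either microfluidically (Caliper, EDTA stop) or by LC-MS MRM (TCA stop).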
For `CC1(C)CCc2c(C(=O)Nc3cnn(C(c4cccc(S(C)(=O)=O)c4)C4CCOC4)c3)n[nH]c2C1` (single isomer, unassigned) [Example 126b, 6,6-dimethyl-N-(1-((3-(methylsulfonyl)phenyl)(tetrahydrofuran-3-yl)methyl)-1H-pyrazol-4-yl)-4,5,6,7-tetrahydro-1H-indazole-3-carboxamide], the Ki amounted to 0.1 nM.

As for `CC1(C)CCc2c(C(=O)Nc3cnn(C(c4cccc(S(C)(=O)=O)c4)C4CCOC4)c3)n[nH]c2C1` (single isomer, unassigned) [Example 126c, 6,6-dimethyl-N-(1-((3-(methylsulfonyl)phenyl)(tetrahydrofuran-3-yl)methyl)-1H-pyrazol-4-yl)-4,5,6,7-tetrahydro-1H-indazole-3-carboxamide], the Ki stood at 4 nM.

In turn, `CC1(C)CCc2c(C(=O)Nc3cnn(C(c4cccc(S(C)(=O)=O)c4)C4CCOC4)c3)n[nH]c2C1` (single isomer, unassigned) [Example 126d, 6,6-dimethyl-N-(1-((3-(methylsulfonyl)phenyl)(tetrahydrofuran-3-yl)methyl)-1H-pyrazol-4-yl)-4,5,6,7-tetrahydro-1H-indazole-3-carboxamide] returned a Ki of 0.2 nM.

Turning to `CC1(C)CCc2c(C(=O)Nc3cnn(C(c4ccccc4)C4CNCCS4(=O)=O)c3)n[nH]c2C1` (single isomer, unassigned) [Example 127a], the Ki was determined as 0.2 nM.

`CC1(C)CCc2c(C(=O)Nc3cnn(C(c4ccccc4)C4CNCCS4(=O)=O)c3)n[nH]c2C1` (single isomer, unassigned) [Example 127b]: the Ki was 6 nM.

Regarding `CN1CC(C(c2ccccc2)n2cc(NC(=O)c3n[nH]c4c3CCC(C)(C)C4)cn2)CN(C)C1=O` (single isomer, unassigned) [Example 129a, N-(1-((1,3-dimethyl-2-oxohexahydropyrimidin-5-yl)(phenyl)methyl)-1H-pyrazol-4-yl)-6,6-di methyl-4,5,6,7-tetrahydro-1H-indazole-3-carboxamide], affinity was put at a Ki of 0.7 nM.

`CN1CC(C(c2ccccc2)n2cc(NC(=O)c3n[nH]c4c3CCC(C)(C)C4)cn2)CN(C)C1=O` (single isomer, unassigned) [Example 129b, N-(1-((1,3-dimethyl-2-oxohexahydropyrimidin-5-yl)(phenyl)methyl)-1H-pyrazol-4-yl)-6,6-di methyl-4,5,6,7-tetrahydro-1H-indazole-3-carboxamide] had a Ki of 6 nM.

Compound `C#CC1(C)CCc2c(C(=O)Nc3cnn(Cc4ccccc4)c3)n[nH]c2C1` (single isomer, unassigned) [Example 130a, N-(1-benzyl-1H-pyrazol-4-yl)-6-ethynyl-6-methyl-4,5,6,7-tetrahydro-1H-indazole-3-carboxamide] returned a Ki of 25 nM.

`C#CC1(C)CCc2c(C(=O)Nc3cnn(Cc4ccccc4)c3)n[nH]c2C1` (single isomer, unassigned) [Example 130b, N-(1-benzyl-1H-pyrazol-4-yl)-6-ethynyl-6-methyl-4,5,6,7-tetrahydro-1H-indazole-3-carboxamide] displayed a Ki of 2 nM.

Compound `CN1CCN(CC(c2ccccc2)n2cc(NC(=O)c3n[nH]c4c3CCC(C)(C)C4)cn2)C1=O` (single isomer, unassigned) [Example 131a, 6,6-dimethyl-N-(1-(2-(3-methyl-2-oxoimidazolidin-1-yl)-1-phenylethyl)-1H-pyrazol-4-yl)-4,5,6,7-tetrahydro-1H-indazole-3-carboxamide] returned a Ki of 1 nM.

Compound `CN1CCN(CC(c2ccccc2)n2cc(NC(=O)c3n[nH]c4c3CCC(C)(C)C4)cn2)C1=O` (single isomer, unassigned) [Example 131b, 6,6-dimethyl-N-(1-(2-(3-methyl-2-oxoimidazolidin-1-yl)-1-phenylethyl)-1H-pyrazol-4-yl)-4,5,6,7-tetrahydro-1H-indazole-3-carboxamide] had an inhibitory constant (Ki) of 11 nM.

Take `CC1(C)CCc2c(C(=O)Nc3cnn(C4COCC4c4ccccc4)c3)n[nH]c2C1` (single isomer, unassigned) [Example 132a, 6,6-dimethyl-N-(1-(4-phenyltetrahydrofuran-3-yl)-1H-pyrazol-4-yl)-4,5,6,7-tetrahydro-1H-indazole-3-carboxamide]: the Ki amounted to 77 nM.

For `CC1(C)CCc2c(C(=O)Nc3cnn(C4COCC4c4ccccc4)c3)n[nH]c2C1` (single isomer, unassigned) [Example 132b, 6,6-dimethyl-N-(1-(4-phenyltetrahydrofuran-3-yl)-1H-pyrazol-4-yl)-4,5,6,7-tetrahydro-1H-indazole-3-carboxamide], the Ki came to 10 nM.

`CC1(C)CCc2c(C(=O)Nc3cnn(C(c4ccnc(N)c4)C4CCOCC4)c3)n[nH]c2C1` (single isomer, unassigned) [Example 133a, N-(1-((2-aminopyridin-4-yl)(tetrahydro-2H-pyran-4-yl)methyl)-1H-pyrazol-4-yl)-6,6-dimethyl-4,5,6,7-tetrahydro-1H-indazole-3-carboxamide] registered a Ki of 0.4 nM.

The compound `CC1(C)CCc2c(C(=O)Nc3cnn(C(c4ccnc(N)c4)C4CCOCC4)c3)n[nH]c2C1` (single isomer, unassigned) [Example 133b, N-(1-((2-aminopyridin-4-yl)(tetrahydro-2H-pyran-4-yl)methyl)-1H-pyrazol-4-yl)-6,6-dimethyl-4,5,6,7-tetrahydro-1H-indazole-3-carboxamide] came in with a Ki of 2 nM.

The compound `CC1(C)CCc2c(C(=O)Nc3cnn([C@@H]4COC[C@H]4c4ccccc4)c3)n[nH]c2C1` (single isomer, unassigned) [Example 135a, 6,6-dimethyl-N-(1-(4-phenyltetrahydrofuran-3-yl)-1H-pyrazol-4-yl)-4,5,6,7-tetrahydro-1H-indazole-3-carboxamide] yielded a Ki of 130 nM.

On to `CC1(C)CCc2c(C(=O)Nc3cnn([C@@H]4COC[C@H]4c4ccccc4)c3)n[nH]c2C1` (single isomer, unassigned) [Example 135b, 6,6-dimethyl-N-(1-(4-phenyltetrahydrofuran-3-yl)-1H-pyrazol-4-yl)-4,5,6,7-tetrahydro-1H-indazole-3-carboxamide], for which affinity was put at a Ki of 14 nM.

`CC1CC(C(c2ccccc2)n2cc(NC(=O)c3n[nH]c4c3CCC(C)(C)C4)cn2)CCS1(=O)=O` (single isomer, unassigned) [Example 139a, 6,6-dimethyl-N-(1-((2-methyl-1,1-dioxidotetrahydro-2H-thiopyran-4-yl)(phenyl)methyl)-1H-pyrazol-4-yl)-4,5,6,7-tetrahydro-1H-indazole-3-carboxamide] showed a Ki of 1 nM.

Regarding `CC1CC(C(c2ccccc2)n2cc(NC(=O)c3n[nH]c4c3CCC(C)(C)C4)cn2)CCS1(=O)=O` (single isomer, unassigned) [Example 139b, 6,6-dimethyl-N-(1-((2-methyl-1,1-dioxidotetrahydro-2H-thiopyran-4-yl)(phenyl)methyl)-1H-pyrazol-4-yl)-4,5,6,7-tetrahydro-1H-indazole-3-carboxamide], the Ki turned out to be 0.7 nM.

As to `CC1CC(C(c2ccccc2)n2cc(NC(=O)c3n[nH]c4c3CCC(C)(C)C4)cn2)CCS1(=O)=O` (single isomer, unassigned) [Example 139c, 6,6-dimethyl-N-(1-((2-methyl-1,1-dioxidotetrahydro-2H-thiopyran-4-yl)(phenyl)methyl)-1H-pyrazol-4-yl)-4,5,6,7-tetrahydro-1H-indazole-3-carboxamide], affinity was put at a Ki of 12 nM.

In turn, `CC1CC(C(c2ccccc2)n2cc(NC(=O)c3n[nH]c4c3CCC(C)(C)C4)cn2)CCS1(=O)=O` (single isomer, unassigned) [Example 139d, 6,6-dimethyl-N-(1-((2-methyl-1,1-dioxidotetrahydro-2H-thiopyran-4-yl)(phenyl)methyl)-1H-pyrazol-4-yl)-4,5,6,7-tetrahydro-1H-indazole-3-carboxamide] gave a Ki of 12 nM.

In the case of `CC1CC(C(c2ccccc2)n2cc(NC(=O)c3n[nH]c4c3CCC(C)(C)C4)cn2)CCS1(=O)=O` (single isomer, unassigned) [Example 139e, 6,6-dimethyl-N-(1-((2-methyl-1,1-dioxidotetrahydro-2H-thiopyran-4-yl)(phenyl)methyl)-1H-pyrazol-4-yl)-4,5,6,7-tetrahydro-1H-indazole-3-carboxamide], the Ki was determined as 1 nM.

In the case of `CC1CC(C(c2ccccc2)n2cc(NC(=O)c3n[nH]c4c3CCC(C)(C)C4)cn2)CCS1(=O)=O` (single isomer, unassigned) [Example 139f, 6,6-dimethyl-N-(1-((2-methyl-1,1-dioxidotetrahydro-2H-thiopyran-4-yl)(phenyl)methyl)-1H-pyrazol-4-yl)-4,5,6,7-tetrahydro-1H-indazole-3-carboxamide], the Ki was determined as 0.6 nM.

Regarding `CC1CC(C(c2ccccc2)n2cc(NC(=O)c3n[nH]c4c3CCC(C)(C)C4)cn2)CCS1(=O)=O` (single isomer, unassigned) [Example 139g, 6,6-dimethyl-N-(1-((2-methyl-1,1-dioxidotetrahydro-2H-thiopyran-4-yl)(phenyl)methyl)-1H-pyrazol-4-yl)-4,5,6,7-tetrahydro-1H-indazole-3-carboxamide], the Ki turned out to be 8 nM.
